pIC50: −log10 of the molar value.

This note sets out measurements from PubChem BioAssay AID2305 (GlaxoSmithKline (GSK), 2010).

For the test, the system named is P. falciparum 3D7 growth, pLDH absorbance. As to the kind of experiment: P. falciparum 3D7 growth inhibition, dose response, strain 3D7 (AID 2305).

`CSc1c(CNCCCNc2cc(=O)c3ccccc3[nH]2)[nH]c2ccccc12` gave a pIC50 of 5.95.

As to `COc1ccc2nc3ccccc3c(NCCN3CCN(C)CC3)c2c1`, the pIC50 is 5.89.

Take `CC(C)(C)c1ccc(NC(=O)c2cccc(CN3CCCN(Cc4ccc(F)cc4)CC3)c2)cc1`: the pIC50 is 6.00.

`COc1ccc(-c2nonc2NC(=O)c2ccc(C(C)(C)C)cc2)cc1OC`: the pIC50 is 6.09.

On to `OC(CNc1ccnc(Nc2ccc(Cl)cc2)n1)c1cccc(C(F)(F)F)c1` (centres undefined), for which the pIC50 was 6.17.

Compound `CCCc1cn2c3c(cc(C(=O)N[C@@H](Cc4ccccc4)[C@H](O)CNC4CCOCC4)cc13)N(C)S(=O)(=O)CC2` gave a pIC50 of 7.30.

`COc1cccc(C(=O)NCCc2cccc(Cl)c2)c1Oc1ccccc1`: the pIC50 was 6.08.

For `CCCc1ccc(S(=O)(=O)NC2CCN(c3ccnc(Nc4ccc(OC)cc4)n3)C2)cc1` (centres undefined), the pIC50 was 5.92.

Compound `CCC(C)(C)C1CCc2nc(N)nc(N)c2C1` (centres undefined) showed a pIC50 of 8.00.

Compound `COc1ccc(CCNC(=O)c2cc(C)ccc2O)cc1-c1ccc(C(C)(C)C)cc1` showed a pIC50 of 6.32.

For `O=C(NC1CCC(CN2CCC(c3c[nH]c4ccccc34)CC2)CC1)c1cc(-c2ccccc2Cl)n(-c2cccc(Cl)c2)n1` (centres undefined), the pIC50 is 6.07.

Turning to `CCc1c(C)nc2nc(Cc3cccc(F)c3)nn2c1N1CCN(c2ccccn2)CC1`, the pIC50 is 6.12.

The compound `CCOc1ccc2nc(C)cc(NN=Cc3ccc(Cl)cc3)c2c1` had a pIC50 of 6.12.

As to `OCC(CO)(CO)NCc1ccc2c3c(cccc13)-c1ccccc1-2`, the pIC50 was 5.90.

In turn, `COc1ccc(NC(=O)[C@H](Cc2ccccc2)Nc2cc(C)nc(NCCc3ccccn3)n2)cc1` gave a pIC50 of 6.08.

`CCCNCc1ccc(-c2ccc(CN(CCOC)C(=O)c3cnc(C)cn3)cc2)nc1` gave a negative logarithm of the IC50 (pIC50) of 5.90.

Compound `O=C(Nc1cccc(C(F)(F)F)c1)N1CCOC(CCN2CCC3(CCc4ccccc43)CC2)(c2ccc(Cl)c(Cl)c2)C1` (centres undefined) showed a pIC50 of 6.13.

For the compound `CC(C)CCN=C(N)c1ccc(OCCCCCOc2ccc(C(N)=NCCC(C)C)cc2)cc1`, the pIC50 was 6.28.

For `O=C(Nc1cccc(C(F)(F)F)c1)c1cccc(S(=O)(=O)NCC2CCN(CC3CCCCC3)CC2)c1`, the pIC50 was 5.83.

With `O=S(=O)(NC1CCN(c2ccnc3ccccc23)C1)c1ccc(OC(F)(F)F)cc1` (centres undefined), the pIC50 was 5.97.

In the case of `COc1cccc(CCc2ccc(O)c3c2C[C@H]2C[C@H]4[C@H](N(C)C)C(=O)C(C(N)=O)=C(O)[C@@]4(O)C(=O)C2=C3O)c1`, the pIC50 is 6.07.

With `Fc1ccc(OC2CN(c3nccc(NCc4ccccc4Cl)n3)C2)cc1`, the negative-log IC50 (pIC50) was 6.05.

Regarding `CCc1c[nH]c2c(N(c3ccccc3)S(C)(=O)=O)cc(C(=O)N[C@@H](Cc3ccccc3)[C@H](O)CNC(C)(C)CCCC(C)C)cc12`, the negative-log IC50 (pIC50) was 6.09.

`COC(=O)c1cccc(OCCNC2CCN(C[C@H](O)c3ccnc4ccc(OC)cc34)CC2)c1` gave a pIC50 of 6.47.

With `CC(=O)N(C)c1cccc(CNc2cc(C)nc(Nc3ccc(C)cc3)n2)c1`, the pIC50 was 6.00.

The compound `N[C@@H](CCNC1CCN(c2cccc(C(F)(F)F)c2)CC1)Cc1ccc(F)c(F)c1` had a pIC50 of 5.89.

`O=C(c1ccccc1)N(Cc1ccccc1-c1ccc(CNCCc2ccccc2)cc1)C1CCN(Cc2ccccc2)CC1` gave a pIC50 of 6.00.

Take `Cc1cc(C)c2nc(N3CCC(C(=O)NCCCN4CCC(N5CCCCC5)CC4)CC3)sc2c1`: the pIC50 was 6.08.

In turn, `CCCN(CC1CC1)c1nc(C)nc2c(-c3ccccc3)cc(C)cc12` gave a pIC50 of 5.99.

`COc1cc(Cc2cnc(N)nc2N)cc(OCCCCCC(=O)O)c1OC` had a pIC50 of 6.64.

`CS(=O)(=O)c1ccc(CNCc2cccc(-c3cccc(-c4nc5ccc(C(F)(F)F)cc5[nH]4)c3)c2)cc1` gave a pIC50 of 6.74.

With `Cn1cnc2c(Nc3ccncc3)nc(-c3ccc4ccccc4c3)nc21`, the pIC50 was 6.06.

`Cc1cccc2[nH]c(-c3cccc(-c4ccc(NC(=O)c5cnccc5C(F)(F)F)cc4)c3)nc12` showed a pIC50 of 6.15.

Consider `Oc1ccc(CCNCCCCCCNCCc2ccc(Cl)c3ccccc23)cc1O`, for which the pIC50 was 6.14.
